US20260109713A1, “SIRTUIN MODULATING COMPOUNDS, INCLUDING SIRTUIN ACTIVATING COMPOUNDS, AND APPLICATIONS THEREOF” (CODAGEN BIOSCIENCES, INC., priority 2022, published 2026)

Key:
Format in all cases: biochemical
hSIRT3 102-399 [1] = target: T1, hSIRT3 102-399 (Homo sapiens, UniProt Q9NTG7); assay: HPLC assay of hSIRT3 102-399 deacetylation of MnSOD peptide, Conditions II (non-steady state): 50 μM NAD+, 600 μM peptide; details: for Conditions II, Effect: Conditions II (non-steady state); for Activity test, Conditions II, HPLC: Conditions II: 50 μM NAD+, 600 μM peptide, 10 μM compound, triplicate
T1 construct: His-tag; purchased Enzo Life Sciences (Farmingdale, NY)
T1 sequence (Q9NTG7 102-399): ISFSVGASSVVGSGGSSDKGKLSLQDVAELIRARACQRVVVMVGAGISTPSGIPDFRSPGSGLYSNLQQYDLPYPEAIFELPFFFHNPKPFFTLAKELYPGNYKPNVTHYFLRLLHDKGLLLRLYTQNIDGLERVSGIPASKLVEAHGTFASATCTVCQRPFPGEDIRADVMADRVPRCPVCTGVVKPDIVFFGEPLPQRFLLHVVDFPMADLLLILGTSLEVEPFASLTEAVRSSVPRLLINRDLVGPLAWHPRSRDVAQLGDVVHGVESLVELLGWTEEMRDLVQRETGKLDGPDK
Method: FIG. 5. Sirt3 activation by top ranked hit compounds.
The deacetylation activity of SIRT3 was detected in the presence of 10 μM compound of AA8AC40 under non-steady state condition (FIG. 5) using HPLC-based assay. […] The test compound is expected to experience three phases (presteady state, steady-state, and post steady state) during the enzymatic reaction. The pre and post-steady state can be considered as non-steady state, in which the enzyme concentration vs. NAD^+ substrate concentration ratio is high. Depending on the initial ratio of enzyme to limiting substrate in the system (and the ratio of enzyme to test compound concentration), the net effect of test compound over the course of the reaction can be either inhibitory or activating, with activation occurring if this ratio is above a threshold value.
Enzymatic reactions included either 1000 μM NAD^+ and 50 μM MnSOD peptide (Conditions I) or 50 μM NAD^+ and 600 μM peptide substrate (Conditions II) in presence of hit compounds (50 μM (Conditions I) or 10 μM (Conditions II)), in a HDAC buffer (50 mM TRIS-HCl, pH 8.0, containing 137 mM sodium chloride, 2.7 mM potassium chloride, and 1 mM magnesium chloride) dimethyl sulfoxide solution 95/5. […] The reaction was terminated by adding a stopping solution (final concentration of 2% TFA, 5 mM Nicotinamide). The peptide product and substrate were resolved using HPLC (reversed-phase C18 HPLC Column). Solvent A was composed of 90% HPLC grade water and 10% acetonitrile with 0.05% (v/v) TFA. Solvent B was composed of acetonitrile with 0.02% (v/v) TFA. […] Then returned to the starting conditions (0% B) within 5 min. Solvent A percentage (100%) was maintained at 100% for 5 additional minutes (36 min total run time).

hSIRT3 = target: T2, hSIRT3 (Homo sapiens, UniProt Q9NTG7); assay: Fluorescence-based SIRT3 deacetylation assay using FdL2 peptide, steady state (Conditions I); details: triplicate
T2 construct: His-tag; purchased Enzo Life Sciences (Farmingdale, NY)
T2 sequence (Q9NTG7 102-399): T1 sequence (Q9NTG7 102-399)
Method: FIG. 4. Effect of top ranked hit compounds on Sirt3 deacetylation activity.
The 6 top ranked compounds from DEL screening were tested modulation effect of SIRT3 using fluorescence-based assay (FIG. 4).
The enzymatic reactions were carried out similar to as described above. The reaction was terminated by adding the 1× developer 2 mM NAM solution and measured the fluorescence on TECAN microplate reader. The raw data were fitted to the defined model equations using GraphPad Prism (GraphPad Software, Inc, CA).

hSIRT3 102-399 [2] = target: T1, hSIRT3 102-399; assay: HPLC assay of hSIRT3 102-399 deacetylation of MnSOD peptide, Conditions I (steady state): 1000 μM NAD+, 50 μM MnSOD peptide; details: for Conditions I, Effect: Conditions I (steady state), HPLC/FdL; for Activity test, Conditions I, HPLC: Conditions I: 1000 μM NAD+, 50 μM MnSOD peptide, 50 μM compound, 30 min, triplicate, same values as % control in Table 3
Method: […] The peptide product and substrate were resolved using HPLC (reversed-phase C18 HPLC Column). Solvent A was composed of 90% HPLC grade water and 10% acetonitrile with 0.05% (v/v) TFA. Solvent B was composed of acetonitrile with 0.02% (v/v) TFA. […] Then returned to the starting conditions (0% B) within 5 min. Solvent A percentage (100%) was maintained at 100% for 5 additional minutes (36 min total run time).

SMILES	Conditions II, Effect (hSIRT3 102-399 [1])	Activity test, Conditions II, HPLC (hSIRT3 102-399 [1])	Activity test, Conditions I, FdL (hSIRT3)	Conditions I, Effect (hSIRT3 102-399 [2])	Activity test, Conditions I, HPLC (hSIRT3 102-399 [2])	% Control in vitro modulation, Non-Steady state (hSIRT3 102-399 [1]; non-steady state, 10 μM modulator) [% Control]	% Control in vitro modulation, Steady-state (hSIRT3 102-399 [2]; steady state, 10 μM modulator) [% Control]
Nc1nc2n(n1)C(c1ccc(OCc3ccccc3)cc1)CC(c1ccc(Cl)cc1)N2 (stereo not drawn) [FIG. 14]	Activator	108.1	101.2	Slight Activator	106.7		
O=C1NCCN(C(=O)c2cccc(-c3cnn4ccccc34)c2)C1CCO (stereo not drawn) [FIG. 227]	Slight Activator	103.1	88.1	Inhibitor	98.2	103.1	98.2
